target: T1, MtbFolB (Mycobacterium tuberculosis, UniProt P9WNC5); assay: primary screen, end-point fluorescence assay, 384-well, […] h; format: biochemical; details: 5 µM DHNP, 14 nM enzyme, pH 8.0, 24 °C, 1% DMSO
T1 sequence (P9WNC5 1-133): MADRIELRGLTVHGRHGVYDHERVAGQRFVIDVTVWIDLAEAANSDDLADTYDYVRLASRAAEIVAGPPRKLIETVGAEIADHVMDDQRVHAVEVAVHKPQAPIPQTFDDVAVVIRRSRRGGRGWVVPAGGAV

Row | SMILES | % inhibition at 20 μM
1 | O=C1NCN(c2ccccc2)C12CCN(CC(O)COc1ccccc1C1CCCC1)CC2 (stereo not drawn) [compound 17, 17] | 32.9%

target: T1, MtbFolB; assay: end-point fluorescence assay; format: biochemical; details: not given

Row | SMILES | IC50
2 | CN(C)c1ccc(NS(=O)(=O)c2ccc3ccn(C)c3c2)cc1 [compound 24, 24] | > 100 µM
3 | O=C(CCC(=O)c1ccc(-c2ccccc2)cc1)Nc1nncs1 [compound 2, 2] | 8 µM
4 | Cc1cc(=O)n(-c2ccccc2)n1C(=O)C(C)Oc1ccccc1 (stereo not drawn) [compound 20, 20] | 23.1 µM
5 | O=S(=O)(Nc1ccc(N2CCCCC2)cc1)c1ccc(Br)s1 [compound 32, 32] | 11.3 µM
6 | CC(=O)Nc1ccc(NS(=O)(=O)c2ccc(Br)s2)cc1 [compound 34, 34] | > 100 µM
7 | Cc1cc(=O)n(-c2ccccc2)n1C(=O)c1ccc(Cl)cc1 [compound 21, 21] | 34.4 µM
8 | CCc1cc(N2CCC[C@@H](O)C2)ccc1NS(=O)(=O)c1ccc(Br)s1 [compound 35, 35] | 29.1 µM
9 | Cc1cc(=O)n(-c2ccccc2)n1C(=O)Cc1cccs1 [compound 3, 3] | 30.1 µM
10 | O=S(=O)(Nc1ccc(N2CCN(S(=O)(=O)c3ccc(Br)s3)CC2)cc1)c1ccc(Br)s1 [compound 39, 39] | 10.6 µM
11 | Cc1noc(C)c1S(=O)(=O)Nc1ccc(N(C)C)cc1 [compound 27, 27] | 9.2 µM
12 | Cc1ccc(-n2c(=O)cc(C)n2C(=O)C(C)Oc2ccccc2)cc1C (stereo not drawn) [compound 22, 22] | 13.5 µM
13 | CC(C)c1ccc(C(C)NS(=O)(=O)c2ccc(Br)s2)cc1 (stereo not drawn) [compound 37, 37] | > 100 µM
14 | O=S(=O)(Nc1ccc(-n2ccnc2)cc1)c1ccc(Br)s1 [compound 33, 33] | > 100 µM
15 | O=C(Nc1nc2ccccc2n1Cc1ccc(F)cc1)C1CCC(F)(F)CC1 [compound 14, 14] | 17.2 µM
16 | O=S(=O)(NCc1ccc(N2CCC(c3ccc(OC(F)(F)F)cc3)CC2)cc1)c1ccc(Br)s1 [compound 38, 38] | > 100 µM
17 | CN(C)c1ccc(NS(=O)(=O)c2cnn(C)c2)cc1 [compound 25, 25] | 6.8 µM
18 | CN(C)c1ccc(NS(=O)(=O)c2ccc(-c3ccc(C(F)(F)F)cc3)cc2)cc1 [compound 29, 29] | > 100 µM

target: T1, MtbFolB; assay: biochemical; details: read-out: % inhibition

Row | SMILES | inhibition at 20 µM
19 | COc1ccc(CC(=O)n2c(C)cc(=O)n2-c2ccccc2)cc1 [compound 16, 16] | 35.1%
20 | Cc1cc(=O)n(-c2ccccc2)n1C(=O)C(C)Oc1ccccc1 (stereo not drawn) [compound 20, 20] | 29.9%
21 | O=C(CCC(=O)c1ccc(-c2ccccc2)cc1)Nc1nncs1 [compound 2] | 53.2%
22 | O=C(Nc1nc2ccccc2n1Cc1ccc(F)cc1)C1CCC(F)(F)CC1 [compound 14] | 36.6%
23 | Cc1cc(=O)n(-c2ccccc2)n1C(=O)c1ccc(Cl)cc1 [compound 21, 21] | 29.8%
24 | Cc1cc(=O)n(-c2ccccc2)n1C(=O)Cc1cccs1 [compound 3, 3] | 52.5%
25 | Cc1ccc(-n2c(=O)cc(C)n2C(=O)C(C)Oc2ccccc2)cc1C (stereo not drawn) [compound 22, 22] | 29.2%
26 | Cc1ccc(-n2c(=O)cc(C)n2C(=O)Cc2cccs2)cc1C [compound 9, 9] | 40.8%

target: T1, MtbFolB; assay: biochemical; details: not given

Row | SMILES | IC50
27 | Cc1cc(=O)n(-c2ccccc2)n1C(=O)C(C)Oc1ccccc1 (stereo not drawn) [compound 20, 20] | 362 ± 82 µM
28 | Cc1cc(=O)n(-c2ccccc2)n1C(=O)Cc1cccs1 [compound 3, 3] | 250 ± 30 µM
29 | Cc1ccc(-n2c(=O)cc(C)n2C(=O)C(C)Oc2ccccc2)cc1C (stereo not drawn) [compound 22, 22] | 172 ± 14 µM
30 | Cc1ccc(-n2c(=O)cc(C)n2C(=O)Cc2cccs2)cc1C [compound 9, 9] | 434 ± 64 µM

Reference: paper doi:10.1101/2023.11.21.567704v1 (biorxiv, 2023)
